Values of other authors in publication PMC6138493 (British Journal of Clinical Pharmacology, 2018).

Details: after intravenous administration; ref Onasch et al. 24

For NCCc1ccc(O)c(O)c1 [DA, dopamine], the “Elimination half‐life of DA in plasma” value is listed as “a few minutes”.
